Columns and labels:
Heteranthera limosa = assay: Test B flooded paddy test; format: in vivo; details: Flood, 250 g ai/ha; 0 to 100 scale where 0 is no effect and 100 is complete control
How it was run: (§1)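 Greenhouse flooded-pot test: compounds dosed into 3 cm standing water over 2-leaf plants, flood held constant. Rated visually after 13–15 days on 0–100 (complete control = 100); a dash marks no test result.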

giant foxtail [1] = assay: Test A postemergence; format: in vivo, Setaria faberii
How it was run: (§2)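 Injury scores run from 0, no effect, to 100, complete control, judged by eye against untreated plants roughly 10 days after treatment. Chemicals carried a surfactant in a non-phytotoxic solvent and went onto loam–sand soil preemergence or onto one- to two-leaf seedlings postemergence.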

barnyardgrass [2] = assay: Test B flooded paddy test; format: in vivo, Echinochloa crus-galli; details: Flood, 250 g ai/ha; 0 to 100 scale where 0 is no effect and 100 is complete control
How it was run: as §1

pigweed [3] = assay: Test A postemergence; format: in vivo, Amaranthus retroflexus; details: 31 g ai/ha, 0 to 100 scale, 0 no effect, 100 complete control
How it was run: as §2

rice = assay: Test B flooded paddy test; format: in vivo, Oryza sativa; details: Flood, 250 g ai/ha; 0 to 100 scale where 0 is no effect and 100 is complete control
How it was run: as §1

sedge, umbrella = assay: Test B flooded paddy test; format: in vivo, Cyperus difformis; details: Flood, 250 g ai/ha; 0 to 100 scale where 0 is no effect and 100 is complete control
How it was run: as §1

barnyardgrass [4] = assay: Test A postemergence; format: in vivo, Echinochloa crus-galli
How it was run: as §2

ragweed [5] = assay: Test A preemergence; format: in vivo, Ambrosia elatior; details: for Ragweed plant response rating (0 to 100 scale): 31 g ai/ha; for Plant response rating, Ragweed: 125 g ai/ha, 0 to 100 scale where 0 is no effect and 100 is complete control
How it was run: as §2

Italian ryegrass [6] = assay: Test A preemergence; format: in vivo, Lolium multiflorum; details: for Ryegrass, Italian plant response rating (0 to 100 scale): 31 g ai/ha; for Plant response rating, Ryegrass, Italian: 125 g ai/ha, 0 to 100 scale where 0 is no effect and 100 is complete control
How it was run: as §2

pigweed [7] = assay: Test A preemergence; format: in vivo, Amaranthus retroflexus; details: for Pigweed plant response rating (0 to 100 scale): 31 g ai/ha; for Plant response rating, Pigweed: 125 g ai/ha, 0 to 100 scale where 0 is no effect and 100 is complete control
How it was run: as §2

ragweed [8] = assay: Test A postemergence; format: in vivo, Ambrosia elatior; details: 31 g ai/ha, 0 to 100 scale, 0 no effect, 100 complete control
How it was run: as §2

corn = assay: Test A postemergence; format: in vivo, Zea mays
How it was run: as §2

giant foxtail [9] = assay: Test A preemergence; format: in vivo, Setaria faberii; details: for Foxtail, Giant plant response rating (0 to 100 scale): 31 g ai/ha; for Plant response rating, Foxtail, Giant: 125 g ai/ha, 0 to 100 scale where 0 is no effect and 100 is complete control
How it was run: as §2

Italian ryegrass [10] = assay: Test A postemergence; format: in vivo, Lolium multiflorum; details: 31 g ai/ha, 0 to 100 scale, 0 no effect, 100 complete control
How it was run: as §2

wheat = assay: Test A postemergence; format: in vivo, Triticum aestivum; details: 31 g ai/ha, 0 to 100 scale, 0 no effect, 100 complete control
How it was run: as §2

kochia [11] = assay: Test A postemergence; format: in vivo, Kochia scoparia
How it was run: as §2

kochia [12] = assay: Test A preemergence; format: in vivo, Kochia scoparia; details: for Kochia plant response rating (0 to 100 scale): 31 g ai/ha; for Plant response rating, Kochia: 125 g ai/ha, 0 to 100 scale where 0 is no effect and 100 is complete control
How it was run: as §2

blackgrass = assay: Test A postemergence; format: in vivo, Alopecurus myosuroides
How it was run: as §2

barnyardgrass [13] = assay: Test A preemergence; format: in vivo, Echinochloa crus-galli; details: for Barnyardgrass plant response rating (0 to 100 scale): 31 g ai/ha; for Plant response rating, Barnyardgrass: 125 g ai/ha, 0 to 100 scale where 0 is no effect and 100 is complete control
How it was run: as §2

galium = assay: Test A postemergence; format: in vivo, Galium aparine
How it was run: as §2

[14] = 31 g ai/ha, 0 to 100 scale, 0 no effect, 100 complete control
[15] = 125 g ai/ha, 0 to 100 scale where 0 is no effect and 100 is complete control

| SMILES | Plant response rating, Ducksalad (Heteranthera limosa) | Plant response rating, Foxtail, Giant (giant foxtail [1]; [14]) | Plant response rating, Foxtail, Giant (giant foxtail [1]; [15]) | Plant response rating, Barnyardgrass (barnyardgrass [2]) | Plant response rating, Pigweed (pigweed [3]) | Plant response rating, Rice (rice) | Plant response rating, Sedge, Umbrella (sedge, umbrella) | Plant response rating, Barnyardgrass (barnyardgrass [4]; [14]) | Plant response rating, Barnyardgrass (barnyardgrass [4]; [15]) | Ragweed plant response rating (0 to 100 scale) (ragweed [5]) | Plant response rating, Ragweed (ragweed [5]) | Ryegrass, Italian plant response rating (0 to 100 scale) (Italian ryegrass [6]) | Plant response rating, Ryegrass, Italian (Italian ryegrass [6]) | Pigweed plant response rating (0 to 100 scale) (pigweed [7]) | Plant response rating, Pigweed (pigweed [7]) | Plant response rating, Ragweed (ragweed [8]) | Plant response rating, Corn (corn; [14]) | Plant response rating, Corn (corn; [15]) | Foxtail, Giant plant response rating (0 to 100 scale) (giant foxtail [9]) | Plant response rating, Foxtail, Giant (giant foxtail [9]) | further results |
| --- | --- | --- | --- | --- | --- | --- | --- | --- | --- | --- | --- | --- | --- | --- | --- | --- | --- | --- | --- | --- | --- |
| Fc1cccc(Oc2ncc(Cl)cn2)c1-n1cc(C2CCCC2)nn1 [Compound 106] | 75 | 50 | 70 | 0 | 50 | 0 | 90 | 0 | 50 | 0 | 0 | 0 | 0 | 10 | 60 | 20 | 0 | 20 | 30 | 70 | Plant response rating, Ryegrass, Italian (Italian ryegrass [10]): 0; Plant response rating, Wheat (wheat): 0; Plant response rating, Kochia (kochia [11]; [14]): 0; Plant response rating, Kochia (kochia [11]; [15]): 50; Kochia plant response rating (0 to 100 scale) (kochia [12]): 0; Plant response rating, Kochia (kochia [12]): 0; Plant response rating, Blackgrass (blackgrass; [14]): 30; Plant response rating, Blackgrass (blackgrass; [15]): 50; Barnyardgrass plant response rating (0 to 100 scale) (barnyardgrass [13]): 0; Plant response rating, Barnyardgrass (barnyardgrass [13]): 40; Plant response rating, Galium (galium; [14]): 50; Plant response rating, Galium (galium; [15]): 70 |
| CC(C)Cc1cn(-c2c(F)cccc2Oc2ncc(Cl)cn2)nn1 [Compound 107] | 40 | 20 | 70 | 30 | 40 | 0 | 70 | 0 | 40 | 0 | 0 | 0 | 0 | 0 | 50 | 30 | 0 | 20 | 30 | 80 | Plant response rating, Ryegrass, Italian (Italian ryegrass [10]): 0; Plant response rating, Wheat (wheat): 10; Plant response rating, Kochia (kochia [11]; [14]): 0; Plant response rating, Kochia (kochia [11]; [15]): 20; Kochia plant response rating (0 to 100 scale) (kochia [12]): 0; Plant response rating, Kochia (kochia [12]): 0; Plant response rating, Blackgrass (blackgrass; [14]): 10; Plant response rating, Blackgrass (blackgrass; [15]): 50; Barnyardgrass plant response rating (0 to 100 scale) (barnyardgrass [13]): 10; Plant response rating, Barnyardgrass (barnyardgrass [13]): 60; Plant response rating, Galium (galium; [14]): 30; Plant response rating, Galium (galium; [15]): 80 |
| Fc1cnc(Oc2cccc(Cl)c2-n2cc(OCC(F)(F)F)cn2)nc1 [Compound 109] | 80 | 10 | 70 | 0 | 70 | 0 | 85 | 10 | 60 | 0 | 10 | 0 | 0 | 100 | 100 | 10 | 10 | 40 | 70 | 90 | Plant response rating, Ryegrass, Italian (Italian ryegrass [10]): 0; Plant response rating, Wheat (wheat): 0; Plant response rating, Kochia (kochia [11]; [14]): 40; Plant response rating, Kochia (kochia [11]; [15]): 60; Kochia plant response rating (0 to 100 scale) (kochia [12]): 20; Plant response rating, Kochia (kochia [12]): 60; Plant response rating, Blackgrass (blackgrass; [14]): 20; Plant response rating, Blackgrass (blackgrass; [15]): 70; Barnyardgrass plant response rating (0 to 100 scale) (barnyardgrass [13]): 20; Plant response rating, Barnyardgrass (barnyardgrass [13]): 60; Plant response rating, Galium (galium; [14]): 50; Plant response rating, Galium (galium; [15]): 90 |
| FCc1cccc(Oc2ncc(Cl)cn2)c1-n1cc(C(F)(F)F)cn1 [Compound 119] | 95 | 30 | 80 | 40 | 70 | 25 | 95 | 40 | 70 | 0 | 60 | 10 | 80 | 100 | 100 | 30 | 10 | 50 | 90 | 100 | Plant response rating, Ryegrass, Italian (Italian ryegrass [10]): 30; Plant response rating, Wheat (wheat): 10; Plant response rating, Kochia (kochia [11]; [14]): 70; Plant response rating, Kochia (kochia [11]; [15]): 90; Kochia plant response rating (0 to 100 scale) (kochia [12]): 50; Plant response rating, Kochia (kochia [12]): 100; Plant response rating, Blackgrass (blackgrass; [14]): 40; Plant response rating, Blackgrass (blackgrass; [15]): 70; Barnyardgrass plant response rating (0 to 100 scale) (barnyardgrass [13]): 30; Plant response rating, Barnyardgrass (barnyardgrass [13]): 90; Plant response rating, Galium (galium; [14]): 70; Plant response rating, Galium (galium; [15]): 100 |

— patent publication US9695155B2, “Herbicidal substituted pyrimidinyloxy benzene compounds” (E. I. DU PONT DE NEMOURS AND COMPANY, priority 2013, dated 2017)
